Holding throughout (type): cell membranes
The target in assay [1] is Glutamate NMDA receptor. Description: Displacement of [3H]glycine from strychnine-insensitive glycine recognition site of NMDA receptor in rat brain cortex membrane. (Displacement assays read how much labelled ligand stays bound in the presence of the test substance.)
For assay [2], the target named is Glutamate NMDA receptor. Description: Displacement of [3H]CGP39653 from glutamate recognition site of NMDA receptor in rat brain cortex membrane in presence of glycine antagonist 5,7-dichlorokynurenic acid.
Assay [3] concerns the target T1, Glutamate NMDA receptor (Rattus norvegicus) (UniProt P35439+Q00959+Q00960+Q00961+Q62645+Q8VHN2+Q9R1M7). As to the kind of experiment: Displacement of [3H]MK-801 from ion channel site of NMDA receptor in rat brain cortex membrane.
The target in assay [4] is T1, Glutamate NMDA receptor (Rattus norvegicus). As to the kind of experiment: Displacement of [3H]spermidine from polyamine site of NMDA receptor in rat brain cortex membrane.
Assay [5] is described as follows: Partial agonist activity at glycine site of NMDA receptor in rat brain cortex membrane assessed as potentiation of [3H]Mk-801 binding by liquid scintillation counting.
Assay [6] concerns the target T1, Glutamate NMDA receptor (Rattus norvegicus). Description: Displacement of [3H]glycine from strychnine-insensitive glycine recognition site of NMDA receptor in rat brain cortex membrane at 3 uM.

The source of these data is ChEMBL document CHEMBL1152981 (J Med Chem, 2009).

Activity calls are given as the source filed them. The rule behind the calls is not given here.

By pKi is commonly meant the negative decadic logarithm of the Ki, by convention in mol/L. One may read the pEC50 as the EC50 on a negative log10 scale, so that one unit is a factor of ten. In general, pA2 refers to a measure of antagonist potency on a negative log scale.

`CC(N)(CO)C(=O)O` (centres undefined): on Glutamate NMDA receptor [1], the pKi is < 4.
For `CCCCCC/C=C/[C@H](N)C(=O)O`, the negative logarithm of the Ki (pKi) on Glutamate NMDA receptor [1] worked out at 5.9.
`CC[C@@H](N)C(=O)O`: the pKi on Glutamate NMDA receptor [1] was < 4.
On the same count and under the same terms, for `N[C@@H](/C=C/CCO)C(=O)O` the value was 6.6; for `C=CC[C@@H](N)C(=O)O`, < 4.
Same read-out and setting: for `NC(C(=O)O)C1CC1` (centres undefined) the value was < 4; for `NC1(C(=O)O)CCCCC1`, < 3.
With `CCc1ccccc1-c1cccc2[nH]c(C(=O)NC[C@@H](N)C(=O)O)cc12`, the negative logarithm of the Ki (pKi) on Glutamate NMDA receptor [2] amounted to 5.4; on Glutamate NMDA receptor [1] it was 7.6. Moreover, the result in assay [3] and in assay [4] was inactive. For the same molecule, the negative logarithm of the EC50 (pEC50) in assay [5] came out at 7.7.
Turning to `N[C@H](CNC(=O)c1cc2ccccc2[nH]1)C(=O)O`, the pKi worked out at 3.8 at Glutamate NMDA receptor [2] and 5.3 at Glutamate NMDA receptor [1]. For the same molecule, the outcome in assay [3] and in assay [4] was inactive. Moreover, the pEC50 in assay [5] stood at 5.3.
`N[C@@H](CNC(=O)c1cc2ccccc2[nH]1)C(=O)O`: the pKi on Glutamate NMDA receptor [1] is on record as < 4.
As to `CCC/C=C/[C@H](N)C(=O)O`, the pKi at Glutamate NMDA receptor [1] worked out at 5.4.
Take `N[C@H](CNC(=O)c1cc2c(Br)cccc2[nH]1)C(=O)O`: the negative logarithm of the Ki (pKi) on Glutamate NMDA receptor [2] is recorded as 4.6; on Glutamate NMDA receptor [1], 7. The outcome in assay [3] and in assay [4] was inactive. Besides, the pEC50 in assay [5] is 6.6.
With `CC(O)[C@@H](N)C(=O)O` (some centres undefined), the result in assay [6] was inactive.
Same read-out and setting: the result for `COC[C@@H](N)C(=O)O` reads “inactive”.
As to `CCNC(=O)NCC(N)C(=O)O` (racemic), the pKi at Glutamate NMDA receptor [1] was < 4.
`NC(CNC(=O)c1ccco1)C(=O)O` (racemic): on Glutamate NMDA receptor [1], the pKi worked out at 4.9. The outcome in assay [3] and in assay [4] was inactive. Besides, the pEC50 in assay [5] was 5.1.
For `COC(=O)NCC(N)C(=O)O` (racemic), at Glutamate NMDA receptor [1], the negative logarithm of the Ki (pKi) worked out at 4.1.
As for `N#Cc1cccc2sc(C(=O)NCC(N)C(=O)O)cc12` (racemic), the negative logarithm of the Ki (pKi) at Glutamate NMDA receptor [2] is reported as < 4; on Glutamate NMDA receptor [1] it was 5.9. Also, the outcome in assay [3] and in assay [4] was inactive. The pA2 in assay [5] was 5.5.
Take `NC(CNC(=O)c1cc2c(-c3ccc(Cl)cc3Cl)cccc2s1)C(=O)O` (racemic): the pKi at Glutamate NMDA receptor [2] is < 4.5; at Glutamate NMDA receptor [1] it was 4.7. Moreover, the result in assay [3] and in assay [4] was inactive. For the same molecule, the pA2 in assay [5] amounted to 5.1.
On Glutamate NMDA receptor [1], `NC(CNC(=O)c1cc2ccc(Cl)cc2[nH]1)C(=O)O` (racemic) gave a negative logarithm of the Ki (pKi) of 4.9.
In turn, `NC(CNC(=O)c1cc2cccc(Cl)c2[nH]1)C(=O)O` (racemic) yielded a negative-log Ki (pKi) on Glutamate NMDA receptor [1] of 5.5.
With `NC(CNC(=O)c1c[nH]c2ccccc12)C(=O)O` (racemic), at Glutamate NMDA receptor [1], the pKi is given as 5.4. Also, the result in assay [3] and in assay [4] was inactive.
Take `NC(CNC(=O)c1cc2c(Cl)cccc2s1)C(=O)O` (racemic): the negative-log Ki (pKi) is < 4 on Glutamate NMDA receptor [2] and 6.5 at Glutamate NMDA receptor [1].
Turning to `COc1cccc2[nH]c(C(=O)NCC(N)C(=O)O)cc12` (racemic), the negative logarithm of the Ki (pKi) at Glutamate NMDA receptor [2] worked out at 4.1; at Glutamate NMDA receptor [1], 5.9.
For `CCCc1c(C(=O)NCC(N)C(=O)O)[nH]c2cccc(-c3ccccc3CC)c12` (racemic) the same measures were 5.3 and 6.8.
For the molecule `CCCc1ccccc1-c1cccc2[nH]c(C(=O)NCC(N)C(=O)O)cc12` (racemic), the figures for the negative-log Ki (pKi) at Glutamate NMDA receptor [2] and at Glutamate NMDA receptor [1] were 5.4 and 7.3, respectively. Further, the negative-log EC50 (pEC50) in assay [5] stood at 7.6.
At Glutamate NMDA receptor [1], `NC(CNC(=O)c1cc2cc(Cl)ccc2[nH]1)C(=O)O` (racemic) had a negative-log Ki (pKi) of 4.7.
With `NC(CNC(=O)c1cc2c(Cl)ccc(Cl)c2[nH]1)C(=O)O` (racemic), the negative logarithm of the Ki (pKi) is 4 at Glutamate NMDA receptor [2] and 6.8 at Glutamate NMDA receptor [1]. Moreover, the pA2 in assay [5] came out at 6.2.
For `CCc1ccccc1-c1cccc2sc(C(=O)NCC(N)C(=O)O)cc12` (racemic), the pKi is 3.9 on Glutamate NMDA receptor [2] and 6.2 on Glutamate NMDA receptor [1]. In addition, the outcome in assay [3] and in assay [4] was inactive.
As for `NC(CNC(=O)c1cc2c(Br)cccc2[nH]1)C(=O)O` (racemic), the pKi on Glutamate NMDA receptor [2] was 4.7; at Glutamate NMDA receptor [1], 6.8.
In the case of `Cn1c(C(=O)NCC(N)C(=O)O)cc2ccccc21` (racemic), on Glutamate NMDA receptor [1], the pKi amounted to 4.9.
For `NC(CNC(=O)C1=Cc2ccccc2C1)C(=O)O` (racemic), the figures for the pKi at Glutamate NMDA receptor [2] and at Glutamate NMDA receptor [1] were < 4 and 5.5, respectively.
On to `NC(CNC(=O)Cc1c[nH]c2ccccc12)C(=O)O` (racemic), for which, at Glutamate NMDA receptor [1], the pKi is given as < 4.
Consider `NC(CNC(=O)c1ccc2ccccc2c1)C(=O)O` (racemic), for which the pKi at Glutamate NMDA receptor [2] was < 4; at Glutamate NMDA receptor [1] it was 5.9. For the same molecule, the outcome in assay [3] and in assay [4] was inactive.
In the case of `NC(CNC(=O)c1cc2c(-c3ccccc3)cccc2[nH]1)C(=O)O` (racemic), the figures for the negative logarithm of the Ki (pKi) at Glutamate NMDA receptor [2] and on Glutamate NMDA receptor [1] were 4.7 and 5.6, respectively.
Consider `Cn1c(C(=O)NCC(N)C(=O)O)cc2c(Br)cccc21` (racemic), for which the pKi at Glutamate NMDA receptor [1] was 5.
Turning to `NC(CNC(=O)C1Cc2ccccc2C1)C(=O)O` (racemic), on Glutamate NMDA receptor [1], the pKi is reported as < 4.
Regarding `NC(CNC(=O)c1cc2c(Br)cccc2s1)C(=O)O` (racemic), the figures for the pKi on Glutamate NMDA receptor [2] and at Glutamate NMDA receptor [1] were < 4 and 6.4, respectively. Besides, the outcome in assay [3] and in assay [4] was inactive.
Turning to `NC(CNC(=O)c1ccc[nH]1)C(=O)O` (racemic), at Glutamate NMDA receptor [1], the pKi is given as 4.9. Also, the outcome in assay [3] and in assay [4] was inactive. In assay [5], the pEC50 came to 5.
With `NC(CNC(=O)Cc1c[nH]c2cccc(Br)c12)C(=O)O` (racemic), the figures for the negative-log Ki (pKi) on Glutamate NMDA receptor [2] and at Glutamate NMDA receptor [1] were < 4 and 4.3, respectively.
The matching figures for `CCc1ccccc1-c1cccc2cc(C(=O)NCC(N)C(=O)O)ccc12` (racemic): 4.5 and 5.7.
The matching figures for `NC(CNC(=O)c1cc2c(Cl)cccc2[nH]1)C(=O)O` (racemic): 4.1 and 6.
With `Cc1ccccc1-c1cccc2[nH]c(C(=O)NCC(N)C(=O)O)cc12` (racemic), the values for the pKi at Glutamate NMDA receptor [2] and on Glutamate NMDA receptor [1] were 5.2 and 6.5, respectively. Also, in assay [5], the pEC50 is on record as 6.9.
Consider `COc1ccccc1-c1cccc2[nH]c(C(=O)NCC(N)C(=O)O)cc12` (racemic), for which the figures for the negative logarithm of the Ki (pKi) on Glutamate NMDA receptor [2] and on Glutamate NMDA receptor [1] were 4.3 and 5.6, respectively.
For `CCc1ccccc1-c1ccc(Cl)c2[nH]c(C(=O)NCC(N)C(=O)O)cc12` (racemic) the same measures were < 4.5 and 6.9.
Take `NC(CNC(=O)c1cc2ccccc2o1)C(=O)O` (racemic): the negative-log Ki (pKi) is < 4 at Glutamate NMDA receptor [2] and 5.2 on Glutamate NMDA receptor [1].
For `NC(CNC(=O)c1ccc2c(Br)cccc2c1)C(=O)O` (racemic) the same measures were 4.3 and 6.6.
On to `CC(C)c1ccccc1-c1cccc2[nH]c(C(=O)NCC(N)C(=O)O)cc12` (racemic), for which the negative-log Ki (pKi) on Glutamate NMDA receptor [2] is given as 5.6; at Glutamate NMDA receptor [1], 7.3.
Take `CN(C)c1ccccc1-c1cccc2[nH]c(C(=O)NCC(N)C(=O)O)cc12` (racemic): the pKi on Glutamate NMDA receptor [2] is recorded as 4.1; at Glutamate NMDA receptor [1], 5.8. Further, the negative-log EC50 (pEC50) in assay [5] came to 6.5.
`NC(CNC(=O)c1ccccn1)C(=O)O` (racemic) had a negative-log Ki (pKi) on Glutamate NMDA receptor [1] of 4.4.
Turning to `NC(CNC(=O)c1cccc2ccccc12)C(=O)O` (racemic), the results for the pKi at Glutamate NMDA receptor [2] and on Glutamate NMDA receptor [1] were < 4 and 5.9, respectively.
As to `CCCc1c(C(=O)NCC(N)C(=O)O)[nH]c2ccccc12` (racemic), the pKi on Glutamate NMDA receptor [2] is reported as 3.8; at Glutamate NMDA receptor [1], 6.3. Further, the outcome in assay [3] and in assay [4] was inactive. Also, the pA2 in assay [5] was determined as 5.7.
Turning to `CCc1ccccc1-c1cccc2c1cc(C(=O)NCC(N)C(=O)O)n2C` (racemic), the negative logarithm of the Ki (pKi) at Glutamate NMDA receptor [1] turned out to be 3.9.
On the same count and under the same terms, the result for `Cc1c(C(=O)NCC(N)C(=O)O)[nH]c2ccccc12` (racemic) reads 5.5.
In the case of `CCCc1c(C(=O)NCC(N)C(=O)O)[nH]c2cccc(Br)c12` (racemic), the negative-log Ki (pKi) at Glutamate NMDA receptor [2] is recorded as 4.2; at Glutamate NMDA receptor [1], 6.5. Further, the pA2 in assay [5] is given as 6.
Turning to `NC(CNC(=O)c1ccc2ccccc2n1)C(=O)O` (racemic), the pKi at Glutamate NMDA receptor [2] is on record as < 4; at Glutamate NMDA receptor [1], 5.6.
For `CCc1ccccc1-c1cccc2[nH]c(C(=O)NCC(N)C(=O)O)cc12` (racemic) the same measures were 4.9 and 7.5.
Regarding `NC(CNC(=O)c1cc2c(-c3ccccc3Cc3ccccc3)cccc2[nH]1)C(=O)O` (racemic), the pKi on Glutamate NMDA receptor [2] was < 5.5; on Glutamate NMDA receptor [1], 6. In assay [5], the pEC50 is on record as 6.5.
With `NC(CNC(=O)c1[nH]c2cccc(Br)c2c1[N+](=O)[O-])C(=O)O` (racemic), the values for the negative-log Ki (pKi) on Glutamate NMDA receptor [2] and at Glutamate NMDA receptor [1] were 4.9 and 6.1, respectively.
For `NC1(C(=O)O)CCC1` [1-AMINOCYCLOBUTANE CARBOXYLIC ACID], the pKi on Glutamate NMDA receptor [1] is 4.8.
Regarding `NC1(C(=O)O)CC1` [1-Aminocyclopropane carboxylic acid], the pKi at Glutamate NMDA receptor [1] came out at 6.8.
The same measure, in the same setting: for `NC1(C(=O)O)CCCC1` [CYCLOLEUCINE] the value was 2.7.
Same read-out and setting: for `C[C@@H](N)C(=O)O` [D-ALANINE] the value was 6.2.
